Data from ChEMBL document CHEMBL1201862, “PubChem BioAssay data set” (2004).
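Following 48 hours of exposure in 96-well plates, responses at five concentrations were used to interpolate endpoints linearly. The concentration for 50% growth inhibition is given as GI50.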 Calls of active or inactive are those of the source. Rule as the data show it: active = GI50 up to about 1.1 µM and inactive = higher.

Legend:
Assay in all cases: inhibition of tumour cell growth, NCI panel, 48 h
ACHN = tested on: ACHN
SW-620 = tested on: SW-620
NCI-H522 = tested on: NCI-H522
SF-539 = tested on: SF-539
TK-10 = tested on: TK-10
UO-31 = tested on: UO-31
UACC-257 = tested on: UACC-257
LOX IMVI = tested on: LOX IMVI
SK-OV-3 = tested on: SK-OV-3
RXF 393 = tested on: RXF 393
SNB-75 = tested on: SNB-75
EKVX = tested on: EKVX
CCRF-CEM = tested on: CCRF-CEM
SN12C = tested on: SN12C
Malme-3M = tested on: Malme-3M
KM12 = tested on: KM12
SF-268 = tested on: SF-268
NCI-H226 = tested on: NCI-H226
SNB-19 = tested on: SNB-19
CAKI-1 = tested on: CAKI-1

Row | Structure (SMILES) | GI50 (ACHN) | GI50 (SW-620) | GI50 (NCI-H522) | GI50 (SF-539) | GI50 (TK-10) | GI50 (UO-31) | GI50 (UACC-257) | GI50 (LOX IMVI) | GI50 (SK-OV-3) | GI50 (RXF 393) | GI50 (SNB-75) | GI50 (EKVX) | GI50 (CCRF-CEM) | GI50 (SN12C) | GI50 (Malme-3M) | GI50 (KM12) | GI50 (SF-268) | GI50 (NCI-H226) | GI50 (SNB-19) | GI50 (CAKI-1)
1 | OCc1nnn2c1CCC2 | > 100 µM (inactive) | > 100 µM (inactive) | > 100 µM (inactive) | > 100 µM (inactive) | > 100 µM (inactive) | > 100 µM (inactive) | > 100 µM (inactive) | > 100 µM (inactive) | > 100 µM (inactive) | > 100 µM (inactive) | > 100 µM (inactive) | > 100 µM (inactive) | > 100 µM (inactive) | > 100 µM (inactive) | > 100 µM (inactive) | > 100 µM (inactive) | – | – | – | –
2 | CCC(=O)NC(OCC1(CC)COC1)(C(F)(F)F)C(F)(F)F | > 100 µM (inactive) | – | > 100 µM (inactive) | > 100 µM (inactive) | > 100 µM (inactive) | > 100 µM (inactive) | > 100 µM (inactive) | > 100 µM (inactive) | > 100 µM (inactive) | 92.3 µM (inactive) | > 100 µM (inactive) | > 100 µM (inactive) | > 100 µM (inactive) | > 100 µM (inactive) | > 100 µM (inactive) | > 100 µM (inactive) | > 100 µM (inactive) | > 100 µM (inactive) | > 100 µM (inactive) | –
3 | O=c1cnn(CCOCP(=O)(O)O)c(=O)[nH]1 | > 100 µM (inactive) | > 100 µM (inactive) | > 100 µM (inactive) | > 100 µM (inactive) | > 100 µM (inactive) | > 100 µM (inactive) | > 100 µM (inactive) | > 100 µM (inactive) | – | > 100 µM (inactive) | > 100 µM (inactive) | > 100 µM (inactive) | > 100 µM (inactive) | > 100 µM (inactive) | > 100 µM (inactive) | > 100 µM (inactive) | > 100 µM (inactive) | > 100 µM (inactive) | > 100 µM (inactive) | > 100 µM (inactive)
4 | CC(=O)OCC1OC(n2cc(F)c(=O)[nH]c2=O)C(N)C(OC(C)=O)C1OC(C)=O (centres undefined) | – | > 100 µM (inactive) | > 100 µM (inactive) | > 100 µM (inactive) | – | > 100 µM (inactive) | > 100 µM (inactive) | > 100 µM (inactive) | > 100 µM (inactive) | > 100 µM (inactive) | > 100 µM (inactive) | > 100 µM (inactive) | > 100 µM (inactive) | > 100 µM (inactive) | > 100 µM (inactive) | > 100 µM (inactive) | > 100 µM (inactive) | > 100 µM (inactive) | > 100 µM (inactive) | > 100 µM (inactive)
5 | O=C1Nc2ccccc2Nc2ccncc21 | – | > 100 µM (inactive) | > 100 µM (inactive) | > 100 µM (inactive) | – | > 100 µM (inactive) | > 100 µM (inactive) | > 100 µM (inactive) | > 100 µM (inactive) | > 100 µM (inactive) | > 76 µM (inactive) | > 100 µM (inactive) | > 100 µM (inactive) | > 31.6 µM (inactive) | > 100 µM (inactive) | > 100 µM (inactive) | > 100 µM (inactive) | > 100 µM (inactive) | > 100 µM (inactive) | > 100 µM (inactive)
6 | Cc1c(N2C(=O)CS(=O)(=O)C2c2cccc(Oc3ccccc3)c2)c(=O)n(-c2ccccc2)n1C (centres undefined) | > 100 µM (inactive) | > 100 µM (inactive) | 26.1 µM (inactive) | > 100 µM (inactive) | 11.2 µM (inactive) | 62.7 µM (inactive) | > 100 µM (inactive) | 47.6 µM (inactive) | 61.8 µM (inactive) | 21.6 µM (inactive) | – | 46.7 µM (inactive) | 45.9 µM (inactive) | 40.5 µM (inactive) | 0.512 µM (active) | 19.4 µM (inactive) | 59.3 µM (inactive) | 42.6 µM (inactive) | > 100 µM (inactive) | 42.3 µM (inactive)
7 | COc1ccc2[nH]c(Cl)c(/C=C3/C(=O)Nc4cc(C)c(OC)cc43)c2c1 | 9.53 µM (inactive) | 4.21 µM (inactive) | 2.9 µM (inactive) | 0.723 µM (active) | 9.18 µM (inactive) | 12.2 µM (inactive) | 11.4 µM (inactive) | 5.3 µM (inactive) | 2.52 µM (inactive) | 11.1 µM (inactive) | 10.8 µM (inactive) | 9.53 µM (inactive) | 3.43 µM (inactive) | 7.43 µM (inactive) | 5.82 µM (inactive) | 3.35 µM (inactive) | 5.75 µM (inactive) | – | 8.26 µM (inactive) | 7.35 µM (inactive)
8 | CCn1cc(C(c2ccc(Cl)cc2)n2ccnc2)c2cc(Br)ccc21 (centres undefined) | 12.8 µM (inactive) | – | – | 18.7 µM (inactive) | 16.1 µM (inactive) | 6.9 µM (inactive) | 14.1 µM (inactive) | 12.9 µM (inactive) | 17.7 µM (inactive) | 14.8 µM (inactive) | 13.6 µM (inactive) | > 100 µM (inactive) | – | 22.8 µM (inactive) | 17.7 µM (inactive) | 11.4 µM (inactive) | 11.2 µM (inactive) | 22.1 µM (inactive) | 14.3 µM (inactive) | 13.7 µM (inactive)
9 | CC(=O)OCC1=C(COC(C)=O)C(=O)c2c(O)ccc(O)c2C1=O | 10.2 µM (inactive) | 3.21 µM (inactive) | 1.55 µM (inactive) | 6.34 µM (inactive) | 16.3 µM (inactive) | 15.4 µM (inactive) | 5.14 µM (inactive) | – | 18.8 µM (inactive) | – | 16.1 µM (inactive) | 15.1 µM (inactive) | 2.45 µM (inactive) | 10.4 µM (inactive) | 4.28 µM (inactive) | 13.3 µM (inactive) | 13.8 µM (inactive) | 15.8 µM (inactive) | – | 5.66 µM (inactive)
10 | Cc1[nH]c(=O)[nH]c(=O)c1/C=C/C(=O)NC(CO)C[S+]([O-])C[S+](C)[O-] (centres undefined) | – | 38.6 µM (inactive) | 9.51 µM (inactive) | 13.9 µM (inactive) | – | 23.7 µM (inactive) | 21.8 µM (inactive) | 15.5 µM (inactive) | 20.5 µM (inactive) | 20.8 µM (inactive) | 7.18 µM (inactive) | 16.4 µM (inactive) | 14.6 µM (inactive) | 14.2 µM (inactive) | 12.2 µM (inactive) | 18.4 µM (inactive) | 4.17 µM (inactive) | 17.5 µM (inactive) | 13.2 µM (inactive) | 4.93 µM (inactive)
11 | CO/N=C1/c2sccc2[C@H](NC(=O)CNC(=O)OC(C)(C)C)[C@@H]1O | – | > 100 µM (inactive) | – | > 100 µM (inactive) | > 100 µM (inactive) | > 100 µM (inactive) | > 100 µM (inactive) | > 100 µM (inactive) | > 100 µM (inactive) | > 100 µM (inactive) | > 100 µM (inactive) | > 100 µM (inactive) | > 100 µM (inactive) | > 100 µM (inactive) | > 100 µM (inactive) | – | > 100 µM (inactive) | > 100 µM (inactive) | > 100 µM (inactive) | > 100 µM (inactive)
12 | C/C=C1\NC(=O)[C@H]2CSSCCC=C[C@H](CC(=O)N[C@H](C(C)C)C(=O)N2)OC(=O)[C@H](C(C)C)NC1=O | 0.00452 µM (active) | 0.000153 µM (active) | – | 6.98e-05 µM (active) | 0.000226 µM (active) | 0.00731 µM (active) | – | – | – | 0.0008 µM (active) | 0.000207 µM (active) | 0.00102 µM (active) | 0.000117 µM (active) | 0.000174 µM (active) | – | 0.000154 µM (active) | 0.000318 µM (active) | 0.000123 µM (active) | 0.000116 µM (active) | 0.00159 µM (active)
13 | O=C1CSc2sc(=S)sc2S1 | – | > 100 µM (inactive) | > 61.7 µM (inactive) | > 100 µM (inactive) | – | > 100 µM (inactive) | > 100 µM (inactive) | 61.1 µM (inactive) | > 75.3 µM (inactive) | 43.1 µM (inactive) | > 100 µM (inactive) | > 100 µM (inactive) | > 76.4 µM (inactive) | > 70.1 µM (inactive) | > 100 µM (inactive) | > 100 µM (inactive) | > 100 µM (inactive) | > 100 µM (inactive) | > 100 µM (inactive) | –
14 | CN1C(=O)CN2C(Cl)(Cl)C2(c2ccccc2)c2cc(Cl)ccc21 (centres undefined) | > 100 µM (inactive) | > 100 µM (inactive) | 31.3 µM (inactive) | – | > 100 µM (inactive) | > 100 µM (inactive) | 55.1 µM (inactive) | > 100 µM (inactive) | > 100 µM (inactive) | > 100 µM (inactive) | – | 65.8 µM (inactive) | 53.7 µM (inactive) | > 100 µM (inactive) | > 100 µM (inactive) | 56.5 µM (inactive) | > 100 µM (inactive) | > 100 µM (inactive) | – | > 100 µM (inactive)
15 | CN(C)c1ccc(/C=N/c2ccc(Oc3ccc(Cl)cc3)c(Cl)c2)cc1 | 28.6 µM (inactive) | 30.3 µM (inactive) | 13.8 µM (inactive) | 16.9 µM (inactive) | 32.4 µM (inactive) | 10.7 µM (inactive) | 19.8 µM (inactive) | 17.9 µM (inactive) | 26.8 µM (inactive) | – | 13.1 µM (inactive) | 17.5 µM (inactive) | 10.8 µM (inactive) | 21.6 µM (inactive) | 15.3 µM (inactive) | 17.1 µM (inactive) | 13.7 µM (inactive) | 21.6 µM (inactive) | 16.4 µM (inactive) | 21.3 µM (inactive)
